Source: patent US9012642B2, “Pyrrolopyridinone compounds and methods for treating HIV” (ViiV Healthcare UK Limited, priority 2011, dated 2015)
Read-outs that look alike come from different tables or passages of the source.

Test system: HIV
Assay: HIV MT4 Assay (antiviral HIV activity in MT-4 cells)
Assay type: cell-based
Description: Antiviral HIV activity and cytotoxicity values for compounds of the invention from Table 1 were measured in parallel in the HTLV-1 transformed cell line MT-4 based on the method previously described (Hazen et al., 2007, In vitro antiviral activity of the novel, tyrosyl-based human immunodeficiency virus (HIV) type 1 protease inhibitor brecanavir (GW640385) in combination with other antiretrovirals and against a panel of protease inhibitor-resistant HIV (Hazen et al., “In vitro antiviral activity of the novel, tyrosyl-based human immunodeficiency virus (HIV) type 1 protease inhibitor brecanavir (GW640385) in combination with other antiretrovirals and against a panel of protease inhibitor-resistant HIV”, Antimicrob. Agents Chemother. 2007, 51: 3147-3154; and Pauwels et al., “Sensitive and rapid assay on MT-4 cells for the detection of antiviral compounds against the AIDS virus”, (J. of Virological Methods 1987, 16: 171-185).
Luciferase activity was measured 96 hours later by adding a cell titer glo (Promega, Madison, Wis.). Percent inhibition of cell protection data was plotted relative to no compound control. Under the same condition, cytotoxicity of the compounds was determined using cell titer Glo™ (Promega, Madison, Wis.). IC50s were determined from a 10 point dose response curve using 3-4-fold serial dilution for each compound, which spans a concentration range >1000 fold.
These values are plotted against the molar compound concentrations using the standard four parameter logistic equation: y=((Vmax*x^n)/(K^n+x^n))+Y^2
Y^2=minimum y n=slope factor
Vmax=maximum y x=compound concentration [M]

[1] = Human immunodeficiency virus 1, MT4, HTLV-1 transformed cell line MT-4, luciferase activity measured 96 hours later, Table 3, read-out: HIV MT4 Assay IC50
[2] = MT4, 96 h, read-out: MT4 (IC50)

## Cc1ccc(-c2c(C(OC(C)(C)C)C(=O)O)n(C)c(=O)c3c2ccn3Cc2ccc3nonc3c2)cc1 (centres unmarked) [Example 20, 2-(1-(benzo[c][1,2,5]oxadiazol-5-ylmethyl)-6-methyl-7-oxo-4-(p-tolyl)-6,7-dihydro-1H-pyrrolo[2,3-c]pyridin-5-yl)-2-(tert-butoxy)acetic acid]
[1]
  IC50: 160 nM
[2]
  IC50: 160 nM

## Cc1ccc(NC(=O)Cn2ccc3c(-c4ccc(Cl)cc4)c(C(OC(C)(C)C)C(=O)O)n(C)c(=O)c32)c(O)c1 (centres unmarked) [Example 12, 2-(tert-butoxy)-2-(4-(4-chlorophenyl)-1-(2-((2-hydroxy-4-methylphenyl)amino)-2-oxoethyl)-6-methyl-7-oxo-6,7-dihydro-1H-pyrrolo[2,3-c]pyridin-5-yl)acetic acid]
[1]
  IC50: 3250 nM
[2]
  IC50: 3250 nM

## Cn1c([C@H](OC(C)(C)C)C(=O)O)c(-c2ccc(Cl)cc2)c2ccn(Cc3ccc(F)c(F)c3)c2c1=O [Example 6, (S)-2-(tert-butoxy)-2-(4-(4-chlorophenyl)-1-(3,4-difluorobenzyl)-6-methyl-7-oxo-6,7-dihydro-1H-pyrrolo[2,3-c]pyridin-5-yl)acetic acid]
[1]
  IC50: 140 nM
[2]
  IC50: 140 nM

## Cc1ccc(-c2c(C(OC(C)(C)C)C(=O)O)n(C)c(=O)c3c2ccn3Cc2ccc(B(O)O)cc2)cc1 (centres unmarked) [Example 21, 2-(1-(4-boronobenzyl)-6-methyl-7-oxo-4-(p-tolyl)-6,7-dihydro-1H-pyrrolo[2,3-c]pyridin-5-yl)-2-(tert-butoxy)acetic acid]
[1]
  IC50: 2700 nM
[2]
  IC50: 2700 nM

## Cn1c(C(OC(C)(C)C)C(=O)O)c(-c2ccc(Cl)cc2)c2ccn(Cc3cn(CCO)nn3)c2c1=O (centres unmarked) [Example 18, 2-(tert-butoxy)-2-(4-(4-chlorophenyl)-1-((1-(2-hydroxyethyl)-1H-1,2,3-triazol-4-yl)methyl)-6-methyl-7-oxo-6,7-dihydro-1H-pyrrolo[2,3-c]pyridin-5-yl)acetic acid]
[1]
  IC50: 50000 nM
[2]
  IC50: 50000 nM

## COCCn1ccc2c(-c3ccc(Cl)cc3)c(C(OC(C)(C)C)C(=O)O)n(C)c(=O)c21 (centres unmarked) [Example 4, 2-(tert-butoxy)-2-(4-(4-chlorophenyl)-1-(2-methoxyethyl)-6-methyl-7-oxo-6,7-dihydro-1H-pyrrolo[2,3-c]pyridin-5-yl)acetic acid]
[1]
  IC50: 1550 nM
[2]
  IC50: 1550 nM

## CC(c1ccccc1)n1ccc2c(-c3ccc(Cl)cc3)c(C(OC(C)(C)C)C(=O)O)n(C)c(=O)c21 (centres unmarked) [Example 13, 2-(tert-butoxy)-2-(4-(4-chlorophenyl)-6-methyl-7-oxo-1-(1-phenylethyl)-6,7-dihydro-1H-pyrrolo[2,3-c]pyridin-5-yl)acetic acid]
[1]
  IC50: 400 nM
[2]
  IC50: 400 nM

## Cc1ccc(-c2c(C(OC(C)(C)C)C(=O)O)n(C)c(=O)c3c2ccn3Cc2cccs2)cc1 (centres unmarked) [Example 25, 2-(tert-butoxy)-2-(6-methyl-7-oxo-1-(thiophen-2-ylmethyl)-4-(p-tolyl)-6,7-dihydro-1H-pyrrolo[2,3-c]pyridin-5-yl)acetic acid]
[1]
  IC50: 220 nM
[2]
  IC50: 220 nM

## Cc1ccc(Cn2ccc3c(-c4ccc5c(c4C)CCCO5)c(C(OC(C)(C)C)C(=O)O)n(C)c(=O)c32)cc1F (centres unmarked) [Example 49, 2-(tert-butoxy)-2-(1-(3-fluoro-4-methylbenzyl)-6-methyl-4-(5-methylchroman-6-yl)-7-oxo-6,7-dihydro-1H-pyrrolo[2,3-c]pyridin-5-yl)acetic acid]
[1]
  IC50: 40 nM
[2]
  IC50: 40 nM

## Cc1nc(Cn2ccc3c(-c4ccc(Cl)cc4)c(C(OC(C)(C)C)C(=O)O)n(C)c(=O)c32)cs1 (centres unmarked) [Example 11, 2-(tert-butoxy)-2-(4-(4-chlorophenyl)-6-methyl-1-((2-methylthiazol-4-yl)methyl)-7-oxo-6,7-dihydro-1H-pyrrolo[2,3-c]pyridin-5-yl)acetic acid]
[1]
  IC50: 310 nM
[2]
  IC50: 310 nM

## Cn1c(C(OC(C)(C)C)C(=O)O)c(-c2ccc(Cl)cc2)c2ccn(Cc3ccccc3)c2c1=O (centres unmarked) [Example 1, 2-(1-benzyl-4-(4-chlorophenyl)-6-methyl-7-oxo-6,7-dihydro-1H-pyrrolo[2,3-c]pyridin-5-yl)-2-(tert-butoxy)acetic acid]
[1]
  IC50: 220 nM
[2]
  IC50: 220 nM

## Cn1c(C(OC(C)(C)C)C(=O)O)c(-c2ccc(Cl)cc2)c2ccn(Cc3cc(F)ccc3F)c2c1=O (centres unmarked) [Example 8, 2-(tert-butoxy)-2-(4-(4-chlorophenyl)-1-(2,5-difluorobenzyl)-6-methyl-7-oxo-6,7-dihydro-1H-pyrrolo[2,3-c]pyridin-5-yl)acetic acid]
[1]
  IC50: 130 nM
[2]
  IC50: 130 nM

## Cc1c(-c2c(C(OC(C)(C)C)C(=O)O)n(C)c(=O)c3c2ccn3Cc2ccc([N+](=O)[O-])cc2)ccc2c1CCCO2 (centres unmarked) [Example 47, 2-(tert-butoxy)-2-(6-methyl-4-(5-methylchroman-6-yl)-1-(4-nitrobenzyl)-7-oxo-6,7-dihydro-1H-pyrrolo[2,3-c]pyridin-5-yl)acetic acid]
[1]
  IC50: 40 nM
[2]
  IC50: 40 nM

## Cc1ccc(-c2c(C(OC(C)(C)C)C(=O)O)n(C)c(=O)c3c2c2c(n3Cc3ccc(F)cc3)CCCC2)cc1 (centres unmarked) [Example 59, 2-(tert-butoxy)-2-(9-(4-fluorobenzyl)-2-methyl-1-oxo-4-(p-tolyl)-2,5,6,7,8,9-hexahydro-1H-pyrido[3,4-b]indol-3-yl)acetic acid]
[1]
  IC50: 280 nM
[2]
  IC50: 280 nM

## COc1ccc(Cn2c3c(c4c(-c5ccc6c(c5C)CCCO6)c(C(OC(C)(C)C)C(=O)O)n(C)c(=O)c42)CCCC3)cc1 (centres unmarked) [Example 62, 2-(tert-butoxy)-2-(9-(4-methoxybenzyl)-2-methyl-4-(5-methylchroman-6-yl)-1-oxo-2,5,6,7,8,9-hexahydro-1H-pyrido[3,4-b]indol-3-yl)acetic acid]
[1]
  IC50: 50 nM
[2]
  IC50: 50 nM

## Cc1ccc(-c2c(C(OC(C)(C)C)C(=O)O)n(C)c(=O)c3c2ccn3-c2ccc(F)cc2)cc1 (centres unmarked) [Example 34, 2-(tert-butoxy)-2-(1-(4-fluorophenyl)-6-methyl-7-oxo-4-(p-tolyl)-6,7-dihydro-1H-pyrrolo[2,3-c]pyridin-5-yl)acetic acid]
[1]
  IC50: 770 nM
[2]
  IC50: 770 nM

## Cc1ccc(-c2c(C(OC(C)(C)C)C(=O)O)n(C)c(=O)c3c2ccn3Cc2ccc3c(c2)OCO3)cc1 (centres unmarked) [Example 33, 2-(1-(benzo[d][1,3]dioxol-5-ylmethyl)-6-methyl-7-oxo-4-(p-tolyl)-6,7-dihydro-1H-pyrrolo[2,3-c]pyridin-5-yl)-2-(tert-butoxy)acetic acid]
[1]
  IC50: 210 nM
[2]
  IC50: 210 nM

## COc1ccc(Cn2ncc3c(-c4ccc(C)c(C)c4)c(C(OC(C)(C)C)C(=O)O)n(C)c(=O)c32)cc1 (centres unmarked) [Example 63, 2-(tert-Butoxy)-2-(4-(3,4-dimethylphenyl)-1-(4-methoxybenzyl)-6-methyl-7-oxo-6,7-dihydro-1H-pyrazolo[3,4-c]pyridin-5-yl)acetic acid]
[1]
  IC50: 1200 nM
[2]
  IC50: 1200 nM

## Cc1c(-c2c(C(OC(C)(C)C)C(=O)O)n(C)c(=O)c3c2cnn3Cc2ccccn2)ccc2c1CCCO2 (centres unmarked) [Example 66, 2-(tert-Butoxy)-2-(6-methyl-4-(5-methylchroman-6-yl)-7-oxo-1-(pyridin-2-ylmethyl)-6,7-dihydro-1H-pyrazolo[3,4-c]pyridin-5-yl)acetic acid]
[1]
  IC50: 1360 nM
[2]
  IC50: 1360 nM

## Cn1c(C(OC(C)(C)C)C(=O)O)c(-c2ccc(Cl)cc2)c2ccn(CCN3CCCCC3)c2c1=O (centres unmarked) [Example 7, 2-(tert-butoxy)-2-(4-(4-chlorophenyl)-6-methyl-7-oxo-1-(2-(piperidin-1-yl)ethyl)-6,7-dihydro-1H-pyrrolo[2,3-c]pyridin-5-yl)acetic acid]
[1]
  IC50: 1000 nM
[2]
  IC50: 1000 nM

## Cn1c(C(OC(C)(C)C)C(=O)O)c(-c2ccc(Cl)cc2)c2ccn(Cc3ccc(F)cc3)c2c1=O (centres unmarked) [Example 2, 2-(tert-butoxy)-2-(4-(4-chlorophenyl)-1-(4-fluorobenzyl)-6-methyl-7-oxo-6,7-dihydro-1H-pyrrolo[2,3-c]pyridin-5-yl)acetic acid]
[1]
  IC50: 160 nM
[2]
  IC50: 160 nM

## COc1ccc(Cn2ncc3c(-c4ccc5c(c4C)CCCO5)c(C(OC(C)(C)C)C(=O)O)n(C)c(=O)c32)cc1 (centres unmarked) [Example 65]
[1]
  IC50: 410 nM
[2]
  IC50: 410 nM

## Cc1cn(Cc2ccccc2)c2c(=O)n(C)c(C(OC(C)(C)C)C(=O)O)c(-c3ccc(Cl)cc3)c12 (centres unmarked) [Example 15, 2-(1-benzyl-4-(4-chlorophenyl)-3,6-dimethyl-7-oxo-6,7-dihydro-1H-pyrrolo[2,3-c]pyridin-5-yl)-2-(tert-butoxy)acetic acid]
[1]
  IC50: 1620 nM
[2]
  IC50: 1620 nM

## Cc1ccc(-c2c(C(OC(C)(C)C)C(=O)O)n(C)c(=O)c3c2ccn3Cc2ccccc2)cc1 (centres unmarked) [Example 19, 2-(1-benzyl-6-methyl-7-oxo-4-(p-tolyl)-6,7-dihydro-1H-pyrrolo[2,3-c]pyridin-5-yl)-2-(tert-butoxy)acetic acid]
[1]
  IC50: 80 nM
[2]
  IC50: 80 nM

## COc1ccc(-c2c(C(OC(C)(C)C)C(=O)O)n(C)c(=O)c3c2ccn3Cc2ccc(F)cc2)cc1 (centres unmarked) [Example 36, 2-(tert-butoxy)-2-(1-(4-fluorobenzyl)-4-(4-methoxyphenyl)-6-methyl-7-oxo-6,7-dihydro-1H-pyrrolo[2,3-c]pyridin-5-yl)acetic acid]
[1]
  IC50: 60 nM
[2]
  IC50: 60 nM
